For assay [1], the system named is Lung cancer tumor cells. Kind of assay: MTT proliferation inhibition, lung cancer cells. In kind it is cell-based, human. Also on record: concentration or dose not given beside the values. The conditions noted are these: 48 h. As to the method:
(§1) The activity of mPEG-HM-1 to inhibit the growth of various tumor cells was examined by MTT assay. The tumor cells were cultured to a concentration of 90% or more in a 37° C., 5% CO2 incubator and collected by trypsinization. The cells were resuspended in the culture medium and counted under a microscope to adjust the cell concentration to 2×10^4 cells/mL, the cell suspension was inoculated into a 96-well plate at 100 μL/well and incubated overnight at 37° C. in a 5% CO2 incubator. mPEG-HM-1 was diluted with the culture solution to each predetermined concentration. Docetaxel is diluted to the final concentration with the culture medium. After the cells were fully attached, each dilution was added to a 96-well plate (100 μL/well). The mPEG-HM-1 dilution was added as a drug-administered group, and docetaxel was added as a positive control group, and a culture solution without any drug was used as a negative control group. Incubate for 48 h at 37° C. in a 5% CO2 incubator. 5 mg/mL of MTT was added to a 96-well plate at 20 μL per well, and incubation was continued for 4 hours. The medium was aspirated, dissolved in 150 μL of DMSO per well, and gently mixed by shaking for 10 min. The absorbance was measured at a measurement wavelength of 570 nm and a reference wavelength of 630 nm using a microplate reader, and the rate of growth inhibition (proliferation inhibition, PI) was calculated. The formula is as follows: PI (%)=1−administration group/negative group
(§2) The test was repeated 3 times independently, and the results obtained by the test were expressed as mean±SD, and the test results are shown in Table 15 to Table 18.

The subject of assay [2] is collagen induced arthritis (CIA) in DBA/1 mice. Kind of assay: Collagen-induced mouse arthritis (CIA) model. The conditions noted are these: for Joint swelling / Left and right paw swelling / Clinical score: CIA DBA/1 mice; for Clinical score: maximum score 16. In kind it is in vivo.
Assay [3] relates to sarcoma tumor cells. The assay is described as follows: MTT proliferation inhibition, sarcoma cells. Also on record: concentration or dose not given beside the values. In kind it is cell-based, human. To be noted: 48 h. On the procedure: as §1, §2
The subject of assay [4] is Pancreatic cancer tumor cells. Kind of assay: MTT proliferation inhibition, pancreatic cancer cells. The conditions noted are these: 48 h. It is filed as cell-based, human. Also on record: concentration or dose not given beside the values. On the procedure: as §1, §2
The test system of assay [5] is choroidal neovascularization in BN rats. Kind of assay: Laser-induced choroidal neovascularization in BN rats (FFA). In kind it is in vivo, rat. On the procedure: 6-8 weeks old male BN rats were anesthetized with 846 compound anesthetic 0.5 mL/kg administered intraperitoneally. The eye drops of compound tropamide eyes were used 5 minutes before laser photocoagulation, and the pupils of both eyes were fully scattered. Fix animals, with the aid of −53.00 D contact lens, around the optic disc and along the same distance from the optic disc 2PD, the laser beam photocoagulation were performed to make a total of 8 photo-condensation spots, with laser wavelength of 647.1 nm, power of 350 mW, photocoagulation spot diameter and time were 50 μm and 0.05 s, respectively. Immediately after photocoagulation, fundus photography was performed. FFA, histopathology and transmission electron microscopy were performed at 3, 7, 14, 21, and 28 days after photocoagulation.
It was confirmed by fundus photography and FFA examination that the fluorescein leakage of photocoagulation peaked on the 21st day after photocoagulation, and histopathological examination was performed at the same time. […] A large number of neovascular vessels were seen, and red blood cells were visible in the lumen. Microscopically, capillary cells in the choroidal melanocytes were cohesively altered and endothelial cells aggregated.
Rats that were successfully modeled were randomly divided into groups of 5 rats each. They were labeled as negative control group, mPEG-SC-HM-1 treatment group, mPEG2-NHS-HM-1 treatment group, mPEG-ALD-HM-1 treatment group and mPEG-bALD-HM-1 treatment group, respectively. Saline, mPEG-HM-1 (see Table 53 for dosing) was administered intravitreally, once daily for 1 week. FFA examinations were performed 3 days, 7 days, 14 days, and 28 days after administration of the modified peptides.

Assay [6] deals with retinal neovascular clusters in OIR C57/B16 mice. Kind of assay: Retinal blood vessels in OIR mice. It is filed as in vivo, mouse. The conditions noted are these: for Neovascular clusters area: retina evaluated on day 17; for Inhibition rate: neovascular clusters area vs control, day 17. The text has this:
Establishment of the OIR model: Exposure of young mouse and their mothers to 75% hyperoxic environment from day 7 to day 12 after birth of C57/B16 mice caused rapid disappearance of capillaries in the central retina. Upon returning to the indoor air on the 12th day, the retinal blood vessels, upon exposing to hyperoxia, rapidly disappeared, causing extensive abnormal neovascularization, and the central portion of the retina remained largely avascular for a long time. After the blood vessels disappeared completely, on the 13th day, physiological saline (negative control group), mPEG-SC-HM-1, mPEG2-NHS-HM-1, mPEG-ALD10k-HM-1, and mPEG-bALD-HM-1, were administered by intravitreal injection and retinal vessels were evaluated on day 17 (to label unclosed vessels, […] of Texas Red-labeled tomato lectin was injected into the left ventricle and circulated for 5 min).

Assay [7] has as its system Breast cancer tumor cells. Kind of assay: MTT proliferation inhibition, breast cancer cells. In kind it is cell-based, human. Also on record: concentration or dose not given beside the values. To be noted: 48 h. As to the method:
as §1, §2

Setting [8] is: 40 mg/kg subcutaneous from day 30 of modeling.
Setting [9] is: 20 mg/kg subcutaneous from day 30 of modeling.
Setting [10] is: 10 mg/kg subcutaneous from day 30 of modeling.

Marks after values point to notes of the source that are not given here. Where no end group is shown, it is not given here.

For “mPEG-SC20k-Arg-Gly-Ala-Asp-Arg-Ala-Gly-Gly-Gly-Gly-Arg-Gly-Asp ({mPEG‑SC 20 kDa}-RGADRAGGGGRGD) [mPEG-SC20k-HM-1]”, the “rate of growth inhibition” value in assay [1] is reported as 53.87 ± 15.66%; in assay [3], 48.93 ± 10.53%; in assay [4], 62.63 ± 18.13%; in assay [7], 52.18 ± 18.28%. The substance further displayed a Joint swelling in assay [2] (setting [8]) of 0.76 ± 0.12 mm. The “Left and right paw swelling” value in assay [2] (setting [8]) is recorded as 0.72 ± 0.15 mm. Also, the Clinical score in assay [2] (setting [8]) turned out to be 9.00 ± 1.25. For the same substance, the “limbs score (in words)” value in assay [2] (CIA mice, subcutaneous, once every three days, vs model control group) is reported as “significantly lower than that of the model control group”. Moreover, the “CNV Incidence rate” value in assay [5] (Day 3 after administration, 100 μg intravitreally once daily for 1 week (Table 53)) is on record as 51.35%; in assay [5] (Day 7, 100 μg intravitreally once daily for 1 week (Table 53)), 48.94%; in assay [5] (Day 14, 100 μg intravitreally once daily for 1 week (Table 53)), 45.93%; in assay [5] (Day 28, 100 μg intravitreally once daily for 1 week (Table 53)), 41.79%. Further, the “leakage Spots #” value worked out at 152 in assay [5] (Day 3 after administration, 100 μg intravitreally once daily for 1 week (Table 53), total spots 290-296 by table); 92 in assay [5] (Day 7, 100 μg intravitreally once daily for 1 week (Table 53), total spots 182-188 by table); 62 in assay [5] (Day 14, 100 μg intravitreally once daily for 1 week (Table 53), total spots 132-138 by table); 28 in assay [5] (Day 28, 100 μg intravitreally once daily for 1 week (Table 53), total spots 67-71 by table). Also, the Neovascular clusters area in assay [6] (100 μg intravitreal injection on day 13) is listed as 0.110 ± 0.010 mm^2. Further, the Inhibition rate in assay [6] (100 μg intravitreal) was 50.23%**.
For the substance “mPEG-SC10k-Arg-Gly-Ala-Asp-Arg-Ala-Gly-Gly-Gly-Gly-Arg-Gly-Asp ({mPEG‑SC 10 kDa}-RGADRAGGGGRGD) [mPEG-SC10k-HM-1]”, the “rate of growth inhibition” value in assay [1] worked out at 50.29 ± 13.18%; in assay [3] it was 45.49 ± 11.89%; in assay [4], 60.53 ± 17.16%; in assay [7] it was 50.16 ± 13.27%. The substance also came in with a Joint swelling in assay [2] (setting [9]) of 0.79 ± 0.13 mm. The “Left and right paw swelling” value in assay [2] (setting [9]) worked out at 0.77 ± 0.12 mm. The substance also registered a Clinical score in assay [2] (setting [9]) of 9.06 ± 1.24. For the same substance, the “incidence of CNV” value in assay [5] (BN rats, 28 days after administration, intravitreal once daily for 1 week) is listed as 38.81%. The “CNV Incidence rate” value in assay [5] (Day 3 after administration, 50 μg intravitreally once daily for 1 week (Table 53)) is reported as 49.66%; in assay [5] (Day 7, 50 μg intravitreally once daily for 1 week (Table 53)), 45.74%; in assay [5] (Day 14, 50 μg intravitreally once daily for 1 week (Table 53)), 42.96%; in assay [5] (Day 28, 50 μg intravitreally once daily for 1 week (Table 53)), 38.81%. For the same substance, the “leakage Spots #” value in assay [5] (Day 3 after administration, 50 μg intravitreally once daily for 1 week (Table 53), total spots 290-296 by table) is listed as 147; in assay [5] (Day 7, 50 μg intravitreally once daily for 1 week (Table 53), total spots 182-188 by table), 86; in assay [5] (Day 14, 50 μg intravitreally once daily for 1 week (Table 53), total spots 132-138 by table), 58; in assay [5] (Day 28, 50 μg intravitreally once daily for 1 week (Table 53), total spots 67-71 by table), 26. In assay [6] (50 μg intravitreal injection on day 13), this substance yielded a Neovascular clusters area of 0.096 ± 0.008 mm^2. Also, the Inhibition rate in assay [6] (50 μg intravitreal) came to 56.56%**. Moreover, the “inhibition rate of retinal neovascular clusters” value in assay [6] (OIR mice, 50 μg intravitreal injection, evaluated day 17) turned out to be 56.56%.
In the case of “mPEG-SC5k-Arg-Gly-Ala-Asp-Arg-Ala-Gly-Gly-Gly-Gly-Arg-Gly-Asp ({mPEG‑SC 5 kDa}-RGADRAGGGGRGD) [mPEG-SC5k-HM-1]”, the “rate of growth inhibition” value is 45.33 ± 12.67% in assay [1], 39.42 ± 11.15% in assay [3], 51.37 ± 16.23% in assay [4] and 48.13 ± 12.17% in assay [7]. For the same substance, the Joint swelling in assay [2] (setting [10]) turned out to be 0.81 ± 0.12 mm. In addition, the “Left and right paw swelling” value in assay [2] (setting [10]) is on record as 0.79 ± 0.11 mm. Besides, the Clinical score in assay [2] (setting [10]) worked out at 9.10 ± 1.27. Besides, the “CNV Incidence rate” value was found to be 54.73% in assay [5] (Day 3 after administration, 25 μg intravitreally once daily for 1 week (Table 53)); 53.19% in assay [5] (Day 7, 25 μg intravitreally once daily for 1 week (Table 53)); 48.15% in assay [5] (Day 14, 25 μg intravitreally once daily for 1 week (Table 53)); 47.76% in assay [5] (Day 28, 25 μg intravitreally once daily for 1 week (Table 53)). Also, the “leakage Spots #” value in assay [5] (Day 3 after administration, 25 μg intravitreally once daily for 1 week (Table 53), total spots 290-296 by table) was found to be 162; in assay [5] (Day 7, 25 μg intravitreally once daily for 1 week (Table 53), total spots 182-188 by table), 100; in assay [5] (Day 14, 25 μg intravitreally once daily for 1 week (Table 53), total spots 132-138 by table) it was 65; in assay [5] (Day 28, 25 μg intravitreally once daily for 1 week (Table 53), total spots 67-71 by table), 32. In assay [6] (25 μg intravitreal injection on day 13), this substance displayed a Neovascular clusters area of 0.116 ± 0.012 mm^2. This substance also registered an Inhibition rate in assay [6] (25 μg intravitreal) of 47.42%*.

These data come from patent publication US10869931B2, “Polyethylene glycol-modified angiogenesis inhibitor HM-1 and application thereof” (NANJING ANJI BIOLOGICAL TECHNOLOGY CO.,LTD, priority 2016, dated 2020).
